Experimental data: patent US9663488B2, “Metalloenzyme inhibitor compounds” (Viamet Pharmaceuticals, Inc., priority 2013, dated 2017)
Counter-ions that a name gives are not always drawn.

Legend:
[1] = target: T1, LpxC (Pseudomonas aeruginosa, UniProt P47205); test: Inhibition of LpxC Enzyme; format: biochemical; settings: LpxC enzyme is pseudomonas construct
T1 sequence (P47205 1-303): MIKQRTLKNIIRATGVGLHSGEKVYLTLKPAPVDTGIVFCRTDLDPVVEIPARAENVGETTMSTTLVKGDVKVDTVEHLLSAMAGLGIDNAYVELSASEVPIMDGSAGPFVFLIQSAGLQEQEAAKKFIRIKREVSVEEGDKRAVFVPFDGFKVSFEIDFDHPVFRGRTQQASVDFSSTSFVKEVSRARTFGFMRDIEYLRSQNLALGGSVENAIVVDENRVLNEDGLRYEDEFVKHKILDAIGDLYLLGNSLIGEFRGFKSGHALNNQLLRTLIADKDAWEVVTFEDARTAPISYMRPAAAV
Protocol: [The source words this procedure for another target and reports this target under the same test.] A. Inhibition of LpxC Enzyme
Test compounds were dissolved in 100% DMSO @ 10 mM. Then a series of dilutions were done with 100% DMSO, these were the first intermediate dilutions. Individual 100% DMSO dilutions were diluted independently to another intermediate dilution using assay buffer (bringing the DMSO concentration to 5%). Finally, 10 μl of all these 5% intermediate dilutions were used directly in the 50 μl reaction, making the final DMSO testing concentration at 1%. The enzymatic reactions were conducted in duplicate at room temperature for 1 hour in a 50 μL mixture containing MMP-2 assay buffer, 1 μM Mca-PLGLDpaAR, 10 uL MPP-2 enzyme (1.8 ng) and 10 μL of a test compound. All the reactions were conducted using 10 μl MMP-2 assay buffer in place of enzyme, to detect just the background fluorescence from the compound. After enzymatic reactions, fluorescence intensity was measured at an excitation of 328 nm and an emission of 393 nm using a Tecan Infinite M1000™ microplate reader.

[2] = system: Pseudomonas aeruginosa (ATCC 27853); test: Minimum Inhibitory Concentration (MIC), CLSI broth microdilution; format: cell-based; settings: ATCC27853, 35±1° C., 18±2 h, concentration which completely inhibited growth
Protocol: A. Minimum Inhibitory Concentration (MIC)
Minimum Inhibitory Concentrations (MICS) were determined for Escherichia coli (American Type Culture Collection (ATCC) 25922) and Pseudomonas aeruginosa (ATCC 27853) in accordance with the Clinical and Laboratory Standards Institute (CLSI). Serial, one-half dilutions of compounds were prepared in 96-well dilution blocks in cation-adjusted Mueller-Hinton Broth (MBH)+2% DMSO and transferred to 96-well assay plates in duplicate. Cell suspensions of E. coli and P. aeruginosa were prepared in MHB and added to each well at concentrations of approximately 1.2×10^6 and 3.3×10^6 colony-forming-units per milliliter (cfu/mL), respectively. The inoculated plates were incubated at 35±1° C. for 18±2 h. At the completion of incubation the wells of each plate were evaluated visually for the presence of growth. […] In addition to visual evaluation, optical densities were determined using a Tecan Infinite M200 microplate reader measuring absorbance at 600 nm.

Row | SMILES | IC50 [1] | MIC [2]
1 | NNC(=O)c1cc(-c2ccc(-c3ccc(-c4cc(C(=O)N5CCCCC5C(=O)O)on4)cc3)cc2)nc2ccncc12 (racemic) [Example 115, 1-(3-(4′-(4-(hydrazinecarbonyl)-1,6-naphthyridin-2-yl)-[1,1′-biphenyl]-4-yl)isoxazole-5-carbonyl)piperidine-2-carboxylic acid] | 8 nM | 
2 | CCC(C)C(NC(=O)c1ccc(C#Cc2ccc(-c3cc(C(=O)NN)c4cnccc4n3)cc2)cc1)C(=O)O (racemic) [Example 172, 2-(4-((4-(4-(hydrazinecarbonyl)-1,6-naphthyridin-2-yl)phenyl)ethynyl)benzamido)-3-methylpentanoic acid] | 18 nM | 
3 | O=C(NO)[C@@H](Cc1ccc2ccccc2c1)NS(=O)(=O)c1ccc2ccccc2c1 [BB-78485] | 20 nM | 
4 | NNC(=O)c1cc(-c2ccc(-c3ccc(-c4cc(C(=O)N5CCC[C@@H]5C(=O)O)on4)cc3)cc2)nc2ccncc12 [Example 31, (R)-1-(3-(4′-(4-(hydrazinecarbonyl)-1,6-naphthyridin-2-yl)-[1,1′-biphenyl]-4-yl)isoxazole-5-carbonyl)pyrrolidine-2-carboxylic acid hydrochloride] | 4 nM | 
5 | CS(=O)(=O)NCc1cc(-c2ccc(-c3ccc(-c4cc(C(=O)NN)c5cnccc5n4)cc3)cc2)no1 [Example 35, N-((3-(4′-(4-(hydrazinecarbonyl)-1,6-naphthyridin-2-yl)-[1,1′-biphenyl]-4-yl)isoxazol-5-yl)methyl)methanesulfonamide] | 2 nM | 
6 | O=C(O)CCCOc1ccc(-c2ccc(-c3cc(N4C(=O)CNC4=S)c4cnccc4n3)cc2)cc1 [Example 83, 4-((4′-(4-(5-oxo-2-thioxoimidazolidin-1-yl)-1,6-naphthyridin-2-yl)-[1,1′-biphenyl]-4-yl)oxy)butanoic acid] | 4 nM | 
7 | NNC(=O)c1cc(-c2ccc(-c3ccc(OCCNS(=O)(=O)C(F)(F)F)cc3)cc2)nc2ccncc12 [Example 101] | 6 nM | 
8 | NNC(=O)c1cc(-c2ccc(C#Cc3ccc(NS(=O)(=O)C(F)(F)F)cc3)cc2)nc2ccncc12 [Example 185, 1,1,1-trifluoro-N-(4-((4-(4-(hydrazinecarbonyl)-1,6-naphthyridin-2-yl)phenyl)ethynyl)phenyl)methanesulfonamide] | 5 nM | 
9 | NNC(=O)c1cc(-c2ccc(C#Cc3ccc(C(=O)N4CCCC[C@H]4C(=O)O)cc3Cl)cc2)nc2ccncc12 [Example 202, (S)-1-(3-chloro-4-((4-(4-(hydrazinecarbonyl)-1,6-naphthyridin-2-yl)phenyl)ethynyl)benzoyl)piperidine-2-carboxylic acid hydrochloride] | 2 nM | 128 µg/mL
10 | CS(=O)(=O)Nc1cc2nc(-c3ccc(C#Cc4ccc(C(=O)N5CCCC[C@H]5C(=O)O)cc4Cl)cc3)cc(C(=O)NN)c2cn1 [Example 309, (S)-1-(3-chloro-(4-((4-(4-(hydrazinecarbonyl)-7-(methylsulfonamido)-1,6-naphthyridin-2-yl)phenyl)ethynyl)benzoyl)piperidine-2-carboxylic acid hydrochloride] | 2 nM | 
11 | CS(=O)(=O)Nc1cc2nc(-c3ccc(-c4ccc(-c5cc(CO)on5)cc4)cc3)cc(C(=O)NN)c2cn1 [Example 327, N-(4-(hydrazinecarbonyl)-2-(4′-(5-(hydroxymethyl)isoxazol-3-yl)-[1,1′-biphenyl]-4-yl)-1,6-naphthyridin-7-yl) methanesulfonamide hydrochloride] | 5 nM | 
12 | NNC(=O)c1cc(-c2ccc(-c3ccc(-c4cc(CO)on4)cc3)cc2)nc2cc(NS(=O)(=O)CC(=O)O)ncc12 [Example 328, 2-(N-(4-(hydrazinecarbonyl)-2-(4′-(5-(hydroxymethyl)isoxazol-3-yl)-[1,1′-biphenyl]-4-yl)-1,6-naphthyridin-7-yl)sulfamoyl)acetic acid hydrochloride] | 2 nM | 
